Results on 31 molecules are retold here after ChEMBL document CHEMBL4304767 (ACS Med Chem Lett, 2019).

Data set [1] has as its target T1, Muscarinic acetylcholine receptor M4 (Homo sapiens, UniProt P08173).
T1 sequence (P08173 whole entry): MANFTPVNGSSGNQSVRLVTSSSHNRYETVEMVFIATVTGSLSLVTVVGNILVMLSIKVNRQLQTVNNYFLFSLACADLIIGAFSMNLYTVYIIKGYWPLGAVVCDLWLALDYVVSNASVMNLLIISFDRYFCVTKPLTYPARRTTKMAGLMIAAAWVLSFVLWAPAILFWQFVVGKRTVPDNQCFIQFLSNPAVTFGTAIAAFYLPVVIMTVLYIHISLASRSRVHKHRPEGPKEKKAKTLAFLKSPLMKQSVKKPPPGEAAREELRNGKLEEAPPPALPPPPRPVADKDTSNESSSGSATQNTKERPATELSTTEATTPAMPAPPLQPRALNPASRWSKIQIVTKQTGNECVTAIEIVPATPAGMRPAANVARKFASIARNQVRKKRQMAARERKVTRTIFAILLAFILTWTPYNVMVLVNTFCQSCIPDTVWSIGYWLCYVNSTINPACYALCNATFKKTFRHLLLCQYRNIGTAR
Nature of the data set: Agonist activity at human Muscarinic acetylcholine receptor M4 expressed in HEK cells co-expressing Glosensor construct assessed as decrease in isoproterenol-induced cAMP accumulation incubated for 7 mins in presence of isoproterenol by Glosensor cAMP reagent/plate reader based luminescence assay. The data set is classed as functional, cell-based. A general note: Changes in cAMP serve as a functional read-out for many G protein-coupled receptors.

For data set [2], the target named is T2, Muscarinic acetylcholine receptor M2 (Homo sapiens, UniProt P08172).
T2 sequence (P08172 whole entry): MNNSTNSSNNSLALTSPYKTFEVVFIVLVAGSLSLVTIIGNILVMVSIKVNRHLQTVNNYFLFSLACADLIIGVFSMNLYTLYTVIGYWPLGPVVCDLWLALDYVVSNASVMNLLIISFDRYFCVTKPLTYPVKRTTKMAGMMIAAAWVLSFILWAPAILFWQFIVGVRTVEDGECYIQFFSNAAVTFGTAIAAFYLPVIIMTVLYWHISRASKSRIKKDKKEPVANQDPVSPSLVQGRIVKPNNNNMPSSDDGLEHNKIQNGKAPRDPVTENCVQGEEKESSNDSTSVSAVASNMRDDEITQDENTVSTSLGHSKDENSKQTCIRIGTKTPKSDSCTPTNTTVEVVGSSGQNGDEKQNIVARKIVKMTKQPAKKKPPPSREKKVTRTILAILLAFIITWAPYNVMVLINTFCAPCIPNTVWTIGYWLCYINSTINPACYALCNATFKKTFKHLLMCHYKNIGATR
Nature of the data set: Agonist activity at human Muscarinic acetylcholine receptor M2 expressed in HEK cells co-expressing Glosensor construct assessed as decrease in isoproterenol-induced cAMP accumulation incubated for 7 mins in presence of isoproterenol by Glosensor cAMP reagent/plate reader based luminescence assay. The data set is classed as cell-based.

The target in data set [3] is T2, Muscarinic acetylcholine receptor M2. Nature of the data set: Agonist activity at human Muscarinic acetylcholine receptor M2 expressed in HEK cells co-expressing Glosensor construct assessed as decrease in isoproterenol-induced cAMP accumulation at 10 uM to 0.3 nM incubated for 7 mins in presence of isoproterenol by Glosensor cAMP reagent/plate reader based luminescence assay relative to acetylcholine. The data set is classed as cell-based.

Data set [4] addresses T3, Muscarinic acetylcholine receptor M4 (Homo sapiens) (UniProt P08173).
T3 sequence (whole entry): T1 sequence (P08173 whole entry)
Nature of the data set: Agonist activity at human Muscarinic acetylcholine receptor M4 expressed in HEK cells co-expressing Glosensor construct assessed as decrease in isoproterenol-induced cAMP accumulation at 10 uM to 0.3 nM incubated for 2 hrs in presence of isoproterenol and measured after 7 mins by Glosensor cAMP reagent/plate reader based luminescence assay relative to acetylcholine. The class given is functional, cell-based.

Data set [5] has as its target T3, Muscarinic acetylcholine receptor M4 (Homo sapiens). Nature of the data set: Positive allosteric modulatory activity at human Muscarinic acetylcholine receptor M4 expressed in HEK cells co-expressing Glosensor construct assessed as as increase in acteylcholine-induced cAMP accumulation at 10 uM to 0.3 nM incubated for 7 mins in presence of isoproterenol/acetylcholine by Glosensor cAMP reagent/plate reader based luminescence assay relative to acetylcholine. The data set is classed as functional, cell-based.

The target of data set [6] is T1, Muscarinic acetylcholine receptor M4. Description: Positive allosteric modulatory activity at human Muscarinic acetylcholine receptor M4 expressed in HEK cells co-expressing Glosensor construct assessed as as […] in acteylcholine-induced cAMP accumulation incubated for 7 mins in presence of isoproterenol/acetylcholine by Glosensor cAMP reagent/plate reader based luminescence assay. The class given is functional, cell-based.

In data set [7] the test system is mouse BCRP. Description: Efflux ratio of permeability across basolateral to apical over apical to basolateral in Doxycycline induced dog MDCK cells transfected with mouse BCRP. The class given is ADME, cell-based, Canis lupus familiaris.
In data set [8] the test system is MDR1. Description: Efflux ratio of permeability across basolateral to apical over apical to basolateral in dog MDCK cells transfected with MDR1 gene. The data set is classed as ADME, cell-based, Canis lupus familiaris.

By EC50 is commonly meant the concentration needed to bring the measured effect to its halfway point. As usually defined, the Emax is the size of the effect at its maximum, as opposed to the concentration needed. `CCOC(=O)N1CCCC(N2CCC(c3ncccc3OC)CC2)CC1` (stereo not drawn): the EC50 in data set [1] was found to be 11 nM; in data set [2] (read-out: EC50), 2520 nM. Besides, in data set [3], the Emax at 7 min was 83%. Moreover, the Emax in data set [4] was in the range of 99 to 99.1%.
With `CCCCCCOc1nsnc1C1=CCCN(C)C1`, in data set [5], the Emax came out at 100%.
`COc1cccnc1C1CCN(C2CCCN(c3cncnc3)CC2)CC1` (stereo not drawn): the EC50 in data set [6] is greater than 10000 nM.
In the case of `O=C1CCCN1CC#CCN1CCCC1` [OXOTREMORINE], the EC50 in data set [6] is 9 nM. Besides, the figures for the Emax in data set [5] and in data set [4] were 90.7% and 94.4%, respectively.
For `COc1cccnc1C1CCN(C2CCCN(c3nsnc3OC)CC2)CC1` (stereo not drawn), the EC50 in data set [1] was found to be 2510 nM. Further, in data set [4], the Emax turned out to be 94%.
On to `CCOC(=O)N1CCC2(CC(N3CCC(c4ncccc4OC)CC3)C2)C1` (stereo not drawn), for which the EC50 is 9 nM in data set [1] and greater than 10000 nM in data set [2] (read-out: EC50). The maximal response (Emax) in data set [4] was found to be 90%.
`COc1cccnc1C1CCN(C2CCCN(c3ccncc3)CC2)CC1` (stereo not drawn): the EC50 in data set [1] and in data set [6] was greater than 10000 nM each time.
Turning to `COc1cccnc1C1CCN(C2CCCN(c3cnccn3)CC2)CC1` (stereo not drawn), the results for the EC50 in data set [1], in data set [2] (read-out: EC50) and in data set [6] were 16 nM, 250 nM and 25 nM, respectively. Besides, in data set [3], the Emax at 7 min came to 104%. Moreover, the results for the Emax in data set [5] and in data set [4] were 95.9% and 96.8%, respectively.
Take `COc1cccnc1C1CCN(C2CCCN(c3cncc(C)n3)CC2)CC1` (stereo not drawn): the results for the EC50 in data set [1] and in data set [6] were 9830 nM and greater than 10000 nM, respectively. Also, the Emax in data set [4] was found to be 100%.
The efflux ratio is the permeability from basolateral to apical divided by that in the opposite direction, in the common usage. In the case of `COc1cccnc1C1CCN(CC2CCN(c3cnccn3)CC2)CC1`, the efflux ratio turned out to be 1.62 in data set [7] and 3.89 in data set [8]. The EC50 in data set [1] is 296 nM; in data set [2] (read-out: EC50) it was greater than 8830 nM. The Emax at 7 min in data set [3] is 102%. In addition, the Emax in data set [4] was determined as 78%.
Regarding `COc1cccnc1C1CCN(C2CCCN(c3ncccn3)CC2)CC1` (stereo not drawn), in data set [6], the EC50 was greater than 10000 nM.
For `CCNC(=O)N1CCCC(N2CCC(c3ncccc3OC)CC2)CC1` (stereo not drawn), in data set [1], the EC50 was greater than 5990 nM.
On to `COc1cccnc1C1CCN(C2CCCN(c3nc(C)cs3)CC2)CC1` (stereo not drawn), for which the EC50 in data set [1] is greater than 2740 nM; in data set [6] it was greater than 10000 nM.
With `COc1cccnc1C1CCN(C2CCCN(C(=O)OC(C)C)CC2)CC1` (stereo not drawn), the EC50 in data set [1] was greater than 9250 nM.
Still for that read-out and setting: with `CCCC(=O)N1CCCC(N2CCC(c3ncccc3OC)CC2)CC1` (stereo not drawn) the figure was greater than 8880 nM.
Consider `COc1cccnc1C1CCN(C2CCCN(c3nccs3)CC2)CC1` (stereo not drawn), for which the EC50 in data set [1] and in data set [6] was greater than 10000 nM each time.
Take `c1ccc(-n2ccnc2[C@@H]2[C@@H]3CN(C4CC5(CCN(c6cnccn6)C5)C4)C[C@@H]32)cc1` (stereo partly drawn): the EC50 in data set [1] is 7 nM; in data set [2] (read-out: EC50) it was 420 nM. The Emax at 7 min in data set [3] worked out at 79.4%. In addition, in data set [4], the Emax turned out to be 83.8%.
With `COc1cccnc1C1CCN(C2CCCN(c3ccccn3)CC2)CC1` (stereo not drawn), the EC50 in data set [6] was greater than 10000 nM.
`COc1cccnc1C1CCN(C2CCCN(C(=O)OCC(C)C)CC2)CC1` (stereo not drawn): the EC50 in data set [1] was greater than 9930 nM.
Take `COc1cccnc1C1CCN(C2CCCN(c3cnc(C)cn3)CC2)CC1` (stereo not drawn): the EC50 in data set [1] is greater than 4160 nM. Besides, the Emax in data set [4] was 51%.
As for `COc1cccnc1C1CCN(C2CC3(CCN(c4cnccn4)C3)C2)CC1` (stereo not drawn), the concentration for a half-maximal effect (EC50) is 228 nM in data set [1] and greater than 7350 nM in data set [2] (read-out: EC50). In addition, the Emax at 7 min in data set [3] came to 100%. Moreover, the Emax in data set [4] stood at 100%.
Regarding `COc1cccnc1C1CCN(C2CCCN(c3nsnc3C)CC2)CC1` (stereo not drawn), the EC50 in data set [1] turned out to be 470 nM. For the same molecule, the Emax in data set [4] was found to be 107%.
As for `COc1cccnc1C1CCN(C2CCCN(c3cccnc3)CC2)CC1` (stereo not drawn), the EC50 in data set [6] stood at 10000 nM. Moreover, the Emax in data set [5] was 80%.
Take `CCOC(=O)N1CCC2(CC(N3C[C@@H]4[C@H](C3)[C@@H]4c3nccn3-c3ccccc3)C2)C1` (stereo partly drawn): the EC50 in data set [1] is 3 nM; in data set [2] (read-out: EC50), 5160 nM. Also, the Emax at 7 min in data set [3] was 100%. Moreover, the Emax in data set [4] was 99%.
Consider `CCNS(=O)(=O)N1CCCC(N2CCC(c3ncccc3OC)CC2)CC1` (stereo not drawn), for which the EC50 in data set [1] was greater than 10000 nM.
Consider `CCOC(=O)N1CCC(CN2CCC(c3ncccc3OC)CC2)CC1`, for which the EC50 is 23 nM in data set [1] and “Not Active” in data set [2]. Also, the Emax in data set [4] was determined as 82%.
Consider `COc1cccnc1C1CCN(C2CCCN(c3ncns3)CC2)CC1` (stereo not drawn), for which, in data set [1], the EC50 was 1100 nM. Besides, in data set [4], the Emax came out at 101%.
As for `COc1cccnc1C1CCN(C2CCCN(c3cnsn3)CC2)CC1` (stereo not drawn), the EC50 in data set [1] was 20 nM. The Emax in data set [4] worked out at 109%.
As for `COc1cccnc1C1CCN(C2CCCN(c3nccnc3C)CC2)CC1` (stereo not drawn), the EC50 in data set [1] was 3550 nM; in data set [6], 3410 nM. In data set [4], the Emax came out at 120%.
For the molecule `COc1cccnc1C1CCN(C2CCCN(c3cccnn3)CC2)CC1` (stereo not drawn), the EC50 in data set [6] is greater than 10000 nM.
Take `COc1cccnc1C1CCN(C2CCCN(c3nncs3)CC2)CC1` (stereo not drawn): the EC50 in data set [1] and in data set [6] was greater than 10000 nM in each case.
